In a melting point compilation (Tetko et al.; mined from patent text by program, amines drawn as free bases though some values may be those of a salt):

| Structure (SMILES) | melting point |
| --- | --- |
| COc1cccc([Si](C)(C)COc2cc(C(C)(C)C)c(O)c(C(C)(C)C)c2)c1OC | 94.5 to 96 °C |
| CCCCCNC(=NC#N)Nc1cccnc1 | 130 to 132 °C |
| CC1(C)OC(=O)Nc2ccc(Br)cc21 | 199 to 200 °C |
| COC(=O)NC1=NCC(c2cccc(OC)c2)CN1 (stereo not given) | 218 to 221 °C |
| ClC(Cl)(Oc1ccccc1)Oc1ccccc1 | 42 to 44 °C |
| CNC(=O)N1CCC(Oc2c(F)c(F)c(F)c(F)c2F)CC1 | 107 to 110 °C |
| C#CCOc1cc(Oc2cccc(Cl)c2Cl)ncn1 | 91.9 °C |
| COc1cc(OC)cc(N2CCN(C(=S)Nc3cc(C(C)O)c(C)nc3OC)CC2)c1 (stereo not given) | 189 to 190 °C |
| CCOC(=O)C=Cc1cc(=O)c(C(=O)O)cn1-c1ccc(O)cc1C | 185 to 189 °C |
| CS(=O)(=O)NC(=O)NCCCc1ccc2c(NC(=O)CC3CCCCC3)c(Cl)ccc2n1 | 151 to 152 °C |
| CSc1nc(-c2cc(C(C)(C)C)c(O)c(C(C)(C)C)c2)cs1 | 92 to 93 °C |
| CC(=O)N[C@@H]1CCN(S(=O)(=O)c2ccc(Cl)c(COc3cccc4c(-n5ccnc5)cc(C)nc34)c2Cl)C1 | 246 °C |
| O=c1[nH]nc(-c2ccccc2O)o1 | 198 to 200 °C |
| O=C(Nc1cccnc1)N1CCN(c2nccc(-c3cc(F)ccc3F)n2)CC1 | 270 to 271 °C |
| CC(C)=CCCn1ccnc1[N+](=O)[O-] | 49 to 51 °C |
| Cc1ccc(-c2cnc(C#Cc3ccc(C)s3)s2)cc1 | 101 to 103 °C |
| C=C(C)Cn1ncc(Cl)c(Cl)c1=O | 52 to 54 °C |
| C[C@H](N[C@@H](CCc1ccccc1)C(=O)O)C(=O)N1C(=O)N(C)C[C@H]1C(=O)O | 240 °C |
| CCn1ncc2c3onc(-c4cccc(Cl)c4)c3cnc21 | 178 to 179 °C |
| CC(C)(C)OC(=O)c1ncn2c1C(C)(C)N(C(=O)N1CCCC1)c1cc(F)ccc1-2 | 168 to 170 °C |

| Structure (SMILES) | melting point |
| --- | --- |
| BrCCc1cc(Br)c(CCBr)cc1Br | 106 to 108 °C |
| CC1(C)OC(=O)Nc2ccc(-c3cccc(CC#N)n3)cc21 | 210 to 212 °C |
| CCOC(=O)C(=O)Nc1cc(NC(C)=O)ccc1O | > 300 °C |
| c1cn2nc(SCCOC3CCCCO3)ccc2n1 (stereo not given) | 60 to 62 °C |
| O=P(O)(O)C(O)C(O)P(=O)(O)O (stereo not given) | 209 to 211 °C |
| O=C1C2=C(NCCC2)N(c2ccccc2)C2=NCCN12 | 248 to 250 °C |
| CCCCCCSc1ssc(=S)c1-c1cc(C(C)(C)C)c(O)c(C(C)(C)C)c1 | 110 °C |
| COCN1C(=O)N(c2ccc(C#N)c(OC)c2)C(=O)C1(C)c1ccc(O)cc1 (stereo not given) | 141 °C |
| CCOP(=O)(CNC(=O)Nc1c(C(C)C)cccc1C(C)C)OCC | 132 to 134 °C |
| CN(C)C(=O)Cn1c(-c2cccc(Br)c2)nc2cccnc21 | 144 to 146 °C |
| CCCN(CCC)C1Cc2cc3c(=O)[nH][nH]c(=O)c3cc2C1 | > 300 °C |
| CCC1(C)SC(=NOC(=O)NC)N=C1C (stereo not given) | 115 to 117 °C |
| CC(C)[C@@H]1CC[C@@H](C)C[C@H]1OCC(=O)N(C)CCO | 65 to 66 °C |
| COCc1ccc2c(c1S(=O)(=O)NC(=O)Nc1nc(C)cc(OC)n1)S(=O)(=O)C(C)C2 (stereo not given) | 215 to 216 °C |
| CCOC1CCCC(C2NC(=O)C2C(C)O[Si](C)(C)C(C)(C)C)C1O (stereo not given) | 136 to 138 °C |
| O=C(Nc1ccccc1F)OC1CN2CCC1CC2 (stereo not given) | 124 to 126 °C |
| Cc1csc(C2(c3cccs3)CCCO2)n1 (stereo not given) | 59 to 60 °C |
| CSc1ccc2c(c1)Cc1ccc(C(=O)O)cc1O2 | 266 to 267 °C |
| CCCC(=N)Nc1ccccc1N1CCOCC1 | 131 °C |
| O=c1n(CCCCCl)nc2n1-c1ccccc1OC2 | 56 to 57 °C |

| Structure (SMILES) | melting point |
| --- | --- |
| CC(C)CC1Cc2cc(OCC(=O)O)c(Cl)c(Cl)c2C1=O (stereo not given) | 192 °C |
| O=C1CCCCc2cc(OCC3CCCCC3)ccc21 | 86 to 88 °C |
| COCC(Cl)C(=O)Nc1c(C(=O)CC(=O)Nc2nccs2)cccc1C(F)(F)F (stereo not given) | 190 °C |
| CC(C)(C)OC(=O)N(CCCCC(=O)c1cc2c3c(c1)CCN3C(=O)CC2)CCc1ccccc1O | 154 to 155 °C |
| N#Cc1cc(-c2cccs2)[nH]c1-c1cccs1 | 202 to 204 °C |
| C=CCc1cc2c(c(CC=C)c1O)CCC(=O)N2CCCNC(N)=O | 203 to 204 °C |
| COc1ccc(NC(=O)N=C2CCCN2C)cc1OC | 118 to 120 °C |
| O=C(O)Cc1c(C(=O)c2cc(CO)ccn2)[nH]c2cc(Cl)ccc12 | 210 to 212 °C |
| CCC1(Br)Cc2c(Cl)ccc(OCC(=O)O)c2C1=O (stereo not given) | 136 to 146 °C |
| CNc1nc(C)c(-c2sc(NC)nc2C)s1 | > 280 °C |
| O=S(=O)(Nc1onc2c1CCCC2)c1ccccc1 | 155 to 157 °C |
| Cc1ccc(-c2cc(N)nn2C(=O)OC(C)(C)C)cc1 | 147 °C |
| Fc1ccc(F)c(C(Sc2ccc(Cl)cc2)c2cc(Cl)ncc2Cl)c1 (stereo not given) | 128 to 129 °C |
| CC(C)c1ccc(S(=O)(=O)n2c(CCCC(=O)O)cc3nc(Cl)ccc32)cc1 | 155 °C |
| CCn1c(=O)c2c(nc(/C=C/c3cccc(OC(C)=O)c3OC(C)=O)n2C)n(CC)c1=O | 228 to 230 °C |
| CSc1sc(C(N)=O)c2c1-c1sc(C(N)=O)cc1CC2 | > 300 °C |
| O=C(C1CCCC1)N1c2ccccc2CCC1CN1CCN(c2cccc3[nH]ccc23)CC1 (stereo not given) | 150 to 153 °C |
| C#Cc1ccc(OC2CCCCO2)cc1 (stereo not given) | 65 °C |
| CCCS(=O)(=O)c1ccccc1S(=O)(=O)NC(=O)Nc1nc(Cl)cc(OC)n1 | 193 to 195 °C |
| NS(=O)(=O)c1cccc(C2OCCO2)c1 | 145 to 147 °C |

Further lines, results first:

| melting point | Structure (SMILES) |
| --- | --- |
| 123 °C | CCOC(=O)c1c(N2CCN(C(=O)c3cccs3)CC2)c2cccnc2n(Cc2ccc(OC(C)=O)cc2)c1=O |
| 218 to 219 °C | COc1ccccc1N1CCN(CCCNC(=O)c2cc(N)cc3c(=O)c(C)c(-c4ccccc4)oc23)CC1 |
| 66 to 68 °C | CCOC(=O)c1cc(Cl)c(OCc2ccccc2)c(Cl)c1 |
| 291 to 295 °C | CC(C)n1nc(-c2c(-c3ccccc3)nc(N)[nH]c2=O)ccc1=O |
| 179 to 181 °C | O=C(c1ccc(-n2cccn2)cc1)N1Cc2cccn2Cc2ccccc21 |
| 113 to 114 °C | COC(=O)c1cccc2c1Oc1ccccc1N2 |
| 98 to 100 °C | O=C1C(=O)c2ccccc2C2=C1SCC1(CCCN(C(=O)c3cccc(Cl)c3)CC1)O2 (stereo not given) |
| 258 to 260 °C | Cc1c(-c2cc(Br)c(O)c(Br)c2)oc2ccc(OP(=O)(O)O)cc2c1=O |
| 218 to 219 °C | N#CCn1nc(-c2c(-c3ccccc3)nn3ccccc23)ccc1=O |
| 158 to 159 °C | CNc1nc(-c2ccc(OCc3ccc(Cl)cc3)cc2)cs1 |
| 183 to 185 °C | Cn1c(COc2cccc([N+](=O)[O-])c2)nc2ccccc21 |
| 201 to 203 °C | N#Cc1ccccc1N=Nc1ccc(O)cc1 |
| 192 °C | O=C(O)CCC(=O)Nc1ccc(C(=O)N2CCCCc3ccccc32)cc1 |
| 214 to 217 °C | Nc1nc2ccc(C(=C(Cl)Cl)c3ccccc3)cc2n1N1C=CC=CS1 |
| 56 to 57 °C | CCC(O)(c1ccc(F)cc1)c1ccc(OCc2ccccc2)cc1 (stereo not given) |
| 144 °C | COc1cc(-c2nc3ccccc3n2Cc2ccccc2C(F)(F)F)cc(OC)c1OC |
| 164 to 165 °C | C=CCN(C(=O)Nc1cc(C)c(S(=O)(=O)C[N+](=O)[O-])c(C)c1)c1ccccc1 |
| 86 to 86.5 °C | O=[N+]([O-])c1cccc(-c2coc3ccccc23)c1 |
| 149 to 150 °C | Cc1oc(-c2ccccc2)nc1CCC(N)=O |
| 74 to 75 °C | CCOC(=O)Cc1ccc(OCc2ccc3oc([N+](=O)[O-])c(-c4ccccc4)c3c2)cc1 |

| melting point | Structure (SMILES) |
| --- | --- |
| 130 to 131 °C | CC(Cc1ccc(F)cc1)(NC(=O)CN)c1ccc(F)cc1 (stereo not given) |
| 93 to 96 °C | CC(C)(C)OC(=O)Nc1ccc(-c2cccc(F)c2)cc1[N+](=O)[O-] |
| 152 to 154 °C | CCCCc1nc(C(C)(O)CC)c(C(=O)O)n1Cc1ccc(-c2ccccc2-c2nnn[nH]2)cc1 (stereo not given) |
| 57 to 59 °C | COc1ccc(Sc2ccncc2)c([N+](=O)[O-])c1 |
| 299 to 301 °C | CC1(C#N)C(=O)C2=C(c3ccccc3)NC(=O)C2=C1c1ccccc1 (stereo not given) |
| 152 to 154 °C | CCOCc1nc2c(N)nc3cc(-c4cccc(C(=O)N5CCOCC5)c4)ccc3c2n1CC(C)(C)O |
| 205 to 215 °C | Cc1cc2c(c(C(O)c3cn(C(c4ccccc4)(c4ccccc4)c4ccccc4)cn3)c1)OC(C)(C)OC2 (stereo not given) |
| 221 °C | c1ccc(-c2ccc3[nH]c4ccccc4c3c2)cc1 |
| 109 to 110 °C | O=c1cc(OCc2ccccc2)cc(CC(O)c2ccc(OCc3ccccc3)c(OCc3ccccc3)c2)o1 (stereo not given) |
| 194 to 209 °C | CC(C)c1ccc(C(=O)C2=C(O)C(=O)N(c3ccc(Sc4ccc([N+](=O)[O-])cc4)nn3)C2c2ccc(OC(F)(F)F)cc2)cc1 (stereo not given) |
| 191 to 193 °C | CCC(=O)N1N=C(c2ccc([N+](=O)[O-])c(C)c2)c2cc3c(cc2CC1(C)C#N)OCO3 (stereo not given) |
| 260 to 261 °C | Cn1c(-c2ccc(C(=O)O)cc2)ccc1-c1ccc(C(F)(F)F)cc1 |
| 167 to 170 °C | Cc1cc2cc(CN3CCCC3)cnc2cc1NC(=O)c1ccc(-c2ccccc2)c(F)c1 |
| 144 to 146 °C | CCCc1c(OCCCCCC(=O)c2ccc3cc(OC)c(OC)cc3c2)ccc(C(=O)O)c1O |
| > 280 °C | O=C(Nc1nccs1)c1nc(-c2ccc([N+](=O)[O-])cc2)[nH]c1-c1ccc(CCl)cc1 |
| 148 to 150 °C | Cc1cc(C)cc(-c2cn(C)cc(-c3ccccc3)c2=O)c1 |
| 146 to 149 °C | COc1cccc([C@H]2O[C@H](CC(=O)Nc3cc(C(=O)O)ccc3F)C(=O)N(CC(C)(C)COC(C)=O)c3ccc(Cl)cc32)c1OC |
| 182 to 183 °C | COC(=O)COc1ccc2cc(CNC(=O)c3cc(-c4ccc(Cl)cc4)oc3C(F)(F)F)ccc2c1 |
| 204 to 206 °C | CCCCNC(=O)Nc1ccccc1C(=O)NC1CCN(C(c2ccccc2)c2ccccc2)CC1 |
| 51 to 53 °C | C[Si](C)(Cn1ccnc1)c1ccc(-c2ccccc2)cc1 |
